From patent US20190151274A1, “COMPOUND FOR USE IN THE TREATMENT OF A BLOOD VESSEL DISEASE” (Universitaet Potsdam, priority 2017, published 2019)

Test system: ALK1 mutant zebrafish
Assay: Treatment of ALK1 mutant zebrafish, microscopic images of the lateral dorsal aorta
Type: in vivo
Conditions: 0.3 μM ATRA, 24-51 hours after insemination; control 0.1% DMSO; FIG. 5
Protocol: The zebrafish ALK1 mutant is in a gene that is defective in some patients that suffer from HHT (hereditary hemorrhagic telangiectasia). The ALK1 mutant phenotype is an enlarged lateral dorsal aorta (LDA).
The treatment with the different active ingredients took place, between 24-51 hours after insemination of zebrafish eggs. The treatment was performed with 0.1% DMSO (first row) and 0.3 μM ATRA (second row).

## CC1=C(/C=C/C(C)=C/C=C/C(C)=C/C(=O)O)C(C)(C)CCC1 [ATRA, all-trans retinoic acid]
  overgrowth of the aorta (enlarged lateral dorsal aorta) in the ALK1 mutant: suppressed
